Source: patent US6603023B2 (priority 1996, dated 2003)
pIC50: −log10 of the molar value. Counter-ions that a name gives are not always drawn. Like-named read-outs stand apart in the source and are kept apart here.

Experiments:
B16 Melanoma = format: in vivo, B6D2F1 mice
DC-3F/ADII = test: SRB cytotoxicity, DC-3F/ADII; format: cell-based, hamster; conditions: Mesocricetus auratus, DC3F
Procedure, shortened: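 Cell protein content measured by sulforhodamine B staining after trichloroacetic acid fixation, read at 570 nm; duplicate runs of six to seven concentrations fitted by median-effect analysis. Lines are actinomycin D-resistant DC-3F hamster lung sublines (ADII, ADX), kept under selecting drug in RPMI 1640-10% FBS.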

in vivo = conditions: male, athymic nude (nu/nu), outbred, Swiss background, mouse, in vivo, ip
Description: DMSO was used as a vehicle for epothilones. Each mouse received ≦40 μL DMSO in all experiments.
Athymic nude mice (nu/nu) were used for MX-1 and MCF-7/Adr human mammary carcinoma xenografts. Mice were obtained from Taconic Laboratory Animals and Service (Germantown, N.Y.: outbred, Swiss background).

CCRF-CEM = test: Drug combination analysis (combination index, XTT, 72 h); format: cell-based; conditions: Homo sapiens, median-effect parameter, read-out: Dm (IC50)
[1] = system: Human Lymphoblastic Leukemia CCRF-CEM; test: CCRF-CEM xenograft in nude mice, i.v. 6 h infusion; format: in vivo; conditions: for Average Body Weight, Day 21: initial weight
CCRF-CEM/VBL = CCRF-CEM/VBL xenograft in nude mice, i.v. 6 h infusion; format: in vivo; conditions: CCRF/VBL Leukemia; dEpoB 30 mg/kg Q2D x 5, Taxol 15 mg/kg Q2D x 5
From the text: Treatment on days 19, 21, 23, 25, 27, 39, 41, 43, 45, 47 and 53.

[2] = system: HT-29 Colon Adenocarcinoma; test: HT-29 xenograft; format: in vivo, nude mice; conditions: dEpoB 30 mg/kg Q2D x 6, Taxol 15 mg/kg Q2D x 6
[3] = system: human ovarian UL3-C tumor; test: UL3-C ovarian tumor xenograft
[4] = Hematology and blood chemistry toxicity in MX-1 bearing mice; conditions: day 30; dEpoB 25 mg/kg i.p. day 7-15 then 35 mg/kg day 17-25; Taxol 5 then 6 mg/kg; MX-1 bearing nude mice
[5] = 0.4 mg/kg QD × 6 from day 1, day 5
[6] = 0.4 mg/kg QD × 6 from day 1, day 9
[7] = 0.4 mg/kg QD × 6 from day 1, day 11
[8] = 0.8 mg/kg QD × 5 from day 1, day 5
[9] = 0.8 mg/kg QD × 5 from day 1, day 7
[10] = 0.8 mg/kg QD × 5 from day 1, day 11
[11] = Dose DesoxyepoB 40, Taxol 20, i.v. infusion 6 hr on day 21,23,25,27
[12] = Table 26, Dose Q2D x 4: DesoxyepoB 40, Taxol 20
[13] = UL3-C Ovary, dEpoB 30 mg/kg Q2D x 5, Taxol 15 mg/kg Q2D x 5
[14] = dEpoB 30, Taxol 20 mg/kg, i.v. infusions on day 19,21,23,25,27

Compound: C/C(=C\c1csc(C)n1)[C@@H]1C[C@@H]2O[C@]2(C)CCC[C@H](C)[C@H](O)[C@@H](C)C(=O)C(C)(C)[C@@H](O)CC(=O)O1 [Epothilone B, epothilone B]
- # Mice Died (B16 Melanoma; 0.4 mg/kg QD × 6 from day 1): 1/8
- Average weight change (B16 Melanoma; 0.4 mg/kg QD × 6 from day 1, day 3): -0.2 g
- Average Tumor Volume (T/C) (B16 Melanoma; [5]): 1.08
- Average weight change (B16 Melanoma; [5]): -0.6 g
- Average weight change (B16 Melanoma; 0.4 mg/kg QD × 6 from day 1, day 7): -1.1 g
- Average Tumor Volume (T/C) (B16 Melanoma; [6]): 1.27
- Average weight change (B16 Melanoma; [6]): -3.4 g
- Average Tumor Volume (T/C) (B16 Melanoma; [7]): 1.07
- Average weight change (B16 Melanoma; [7]): -3.9 g
- mice died of toxicity (B16 Melanoma; 0.4 mg/kg QDx6 from day 1 (FIG. 44)): 1 of 8
- Average weight change (B16 Melanoma; 0.8 mg/kg QD × 5 from day 1, day 3): 0 g
- Average Tumor Volume (T/C) (B16 Melanoma; [8]): 0.57
- Average weight change (B16 Melanoma; [8]): -0.8 g
- Average Tumor Volume (T/C) (B16 Melanoma; [9]): 0.89
- Average weight change (B16 Melanoma; [9]): -3.1 g
- Average weight change (B16 Melanoma; 0.8 mg/kg QD × 5 from day 1, day 9): -4.7 g
- Average Tumor Volume (T/C) (B16 Melanoma; [10]): 0.21
- Average weight change (B16 Melanoma; [10]): -4.7 g
- mice died (B16 Melanoma; 0.8 mg/kg QDx5 from day 1 (FIG. 44)): 5 of 8

Compound: CC(=O)O[C@H]1C(=O)[C@@]2(C)[C@H]([C@H](OC(=O)c3ccccc3)[C@]3(O)C[C@H](OC(=O)[C@H](O)[C@@H](NC(=O)c4ccccc4)c4ccccc4)C(C)=C1C3(C)C)[C@]1(OC(C)=O)CO[C@@H]1C[C@@H]2O [Taxol ®, paclitaxel]
- pIC50 (DC-3F/ADII): 5.49
- LD50 (in vivo): 12 mg/kg
- pIC50 (CCRF-CEM): 8.96
- Tumor Disappearance ([1]; CCRF/CEM Leukemia, dEpoB 30 mg/kg Q2D x 5, Taxol 15 mg/kg Q2D x 5): 2/2
- Average Body Weight Changes, Day 23 [1, 11]: -0.1 g
- Average Body Weight Changes, Day 25 [1, 11]: -1.9 g
- Average Body Weight Changes, Day 27 [1, 11]: -2.9 g
- Average Body Weight Changes, Day 29 [1, 11]: -3.0 g
- Average Body Weight Changes, Day 31 [1, 11]: -3.6 g
- Average Body Weight Changes, Day 33 [1, 11]: -2.6 g
- Average Body Weight Changes, Day 35 [1, 11]: -0.5 g
- Average Body Weight Changes, Day 37 [1, 11]: +1.2 g
- Average Body Weight Changes, Day 39 [1, 11]: +1.3 g
- Average Body Weight Changes, Day 41 [1, 11]: +2.1 g
- Average Tumor Size (T/C), Day 21 [1, 11]: 1.17 T/C
- Average Tumor Size (T/C), Day 23 [1, 11]: 0.78 T/C
- Average Tumor Size (T/C), Day 25 [1, 11]: 0.44 T/C
- Average Tumor Size (T/C), Day 27 [1, 11]: 0.11 T/C
- Average Tumor Size (T/C), Day 29 [1, 11]: 0 T/C
- Average Tumor Size (T/C), Day 31 [1, 11]: 0 T/C
- Average Tumor Size (T/C), Day 33 [1, 11]: 0 T/C
- Average Tumor Size (T/C), Day 35 [1, 11]: 0 T/C
- Proportion of Tumor Disappearance (n/total), Day 21 [1, 11]: 0/4
- Proportion of Tumor Disappearance (n/total), Day 23 [1, 11]: 0/4
- Proportion of Tumor Disappearance (n/total), Day 25 [1, 11]: 0/4
- Proportion of Tumor Disappearance (n/total), Day 27 [1, 11]: 1/4
- Proportion of Tumor Disappearance (n/total), Day 29 [1, 11]: 4/4
- Proportion of Tumor Disappearance (n/total), Day 31 [1, 11]: 4/4
- Proportion of Tumor Disappearance (n/total), Day 33 [1, 11]: 4/4
- Proportion of Tumor Disappearance (n/total), Day 35 [1, 11]: 1/4
- Proportion of Tumor Disappearance (n/total), Day 37 [1, 11]: 0/4
- Proportion of Tumor Disappearance (n/total), Day 39 [1, 11]: 0/4
- Proportion of Tumor Disappearance (n/total), Day 41 [1, 11]: 0.4
- Average Body Weight Change, Day 23 [1, 12]: -0.1 g
- Average Body Weight Change, Day 25 [1, 12]: -1.9 g
- Average Body Weight Change, Day 27 [1, 12]: -2.9 g
- Average Body Weight Change, Day 29 [1, 12]: -3.0 g
- Average Body Weight Change, Day 31 [1, 12]: -3.6 g
- Average Tumor Size (T/C), Day 23 [1, 12]: 0.78 T/C
- Average Tumor Size (T/C), Day 25 [1, 12]: 0.44 T/C
- Average Tumor Size (T/C), Day 27 [1, 12]: 0.11 T/C
- Average Tumor Size (T/C), Day 29 [1, 12]: 0 T/C
- Average Tumor Size (T/C), Day 31 [1, 12]: 0 T/C
- Tumor Disappearance [1, 12]: 4/4
- Average Body Weight, Day 21 [1, 12]: 29.0 g
- Average Body Weight, Day 21 [1, 11]: 29.0 g
- Lowest Average Tumor Size (T/C) (CCRF-CEM/VBL): 0.76 T/C
- Tumor Disappearance (CCRF-CEM/VBL): 0
- Lowest Average Tumor Size (T/C) [2]: 0.01 T/C
- Tumor Disappearance [2]: 0
- Lowest Average Tumor Size (T/C) [3, 13]: 0.04 T/C
- Tumor Disappearance [3, 13]: 0
- Average Body Weight (change), Day 33 [3, 14]: -2.7 g
- Average Body Weight Change, Day 27 [3, 14]: -2.9 g
- Average Body Weight Change, Day 29 [3, 14]: -3.3 g
- Average Body Weight Change, Day 31 [3, 14]: -2.4 g
- Average Tumor Size (T/C), Day 27 [3, 14]: 0.10 T/C
- Average Tumor Size (T/C), Day 29 [3, 14]: 0.08 T/C
- Average Tumor Size (T/C), Day 31 [3, 14]: 0.03 T/C
- Average Tumor Size (T/C), Day 33 [3, 14]: 0.04 T/C
- Average Body Weight, Day 19 ([3]; initial weight, dEpoB 30, Taxol 20 mg/kg, i.v. infusions on day 19,21,23,25,27): 31.3 g
- GOT [4]: 438 U/L
- GPT [4]: 79 (n = 5) U/L
- WBC Lymph [4]: 48%
- WBC Neutrophils [4]: 51%
- WBC Total [4]: 10.9 10^3/mm^3

Compound: CC[C@]1(O)C[C@@H]2CN(CCc3c([nH]c4ccccc34)[C@@](C(=O)OC)(c3cc4c(cc3OC)N(C)[C@H]3[C@@](O)(C(=O)OC)[C@H](OC(C)=O)[C@]5(CC)C=CCN6CC[C@]43[C@@H]65)C2)C1 [Vinblastine, Vinblastine sulfate]
- pIC50 (DC-3F/ADII): 7.10
- pIC50 (CCRF-CEM): 9.21
